In test [1] the test system is p-IRE. As to the kind of experiment: Liver endoplasmic reticulum stress marker, Western blot. The class given is in vivo, mouse. The note with it: db/db mice, oral treatment. On the procedure:
The cause of non-alcoholic liver disease (NAFLD) is unclear, but recent studies report that endoplasmic reticulum (ER) stress can be involved in fatty liver development and progression to non-alcoholic fatty hepatitis. Thus, in order to analyze the effect of Compound 32u on endoplasmic reticulum stress-related marker (p-IRE) was identified by Western blot. Briefly, about 50 mg of liver was quantified, homogenated and lysed to extract proteins. After quantifying the extracted protein and loading the same amount thereof in the polyacrylamide gel, the protein was separated according to molecular weight through SDS-PAGE (sodium dodecyl sulfate-polyacrylamide gel electrophoresis). Proteins separated according to molecular weight were transferred to a membrane by applying an electric field, and the desired protein was detected using a specific antibody. After reacting the primary antibody that specifically binds to the protein to be detected for at least 12 hours, the secondary antibody that specifically binds to the primary antibody is reacted for 1 hour, and the expression of the protein can be analyzed by treating the developer liquid containing the substrate HRP (horse radish peroxidase) present in the secondary antibody. […] Briefly, about 50 mg of liver was quantified, homogenated and lysed to extract proteins. […]
For orientation: Immunoblotting shows a protein as a band on a membrane.

The test system of test [2] is db/db mice. As to the kind of experiment: Serum insulin by ELISA in obese animal model. The class given is in vivo. The note with it: oral 5 mg/kg daily, compared with db/db mouse group. As for the experimental part:
The metabolic disease control ability of Compound 32u was analyzed using db/db mice lacking an appetite-regulating hormone leptin receptor as an obese animal model. Compound 32u was orally administered to db/db mice (9 weeks old) at a concentration of 5 mg/kg daily for 4 weeks. Next, the blood insulin concentration was measured using an enzyme-linked immunosorbent assay (ELISA). Mouse insulin ELISA (TMB) kit ([…], Japan) was used, and serum separated from animal blood was added to a 96 well plate coated with insulin primary antibody and after reacting, the secondary antibody and the substrate were added, reacted and the changed color was measured by an absorbance meter. The metabolic disease control ability of Compound 70c was analyzed using db/db mice lacking an appetite-regulating hormone leptin receptor as an obese animal model. Compound 70c was orally administered to db/db mice (9 weeks old) at a concentration of 5 mg/kg daily for 4 weeks. Next, the blood insulin concentration was measured using an enzyme-linked immunosorbent assay (ELISA). Mouse insulin ELISA (TMB) kit ([…], Japan) was used, and serum separated from animal blood was added to a 96 well plate coated with insulin primary antibody and after reacting, the secondary antibody and the substrate were added, reacted and the changed color was measured by an absorbance meter.
(In general: In an ELISA, binding on a coated surface is turned into a signal by an enzyme label.)

Test [3] deals with yeast (Saccharomyces cerevisiae). As to the kind of experiment: Yeast lifespan extension. As to conditions: yeast group treated, compared with the control group.
The test system of test [4] is FASN, ACC, SREBP-1a, SREBP-1c and SREBP-2. As to the kind of experiment: Liver mRNA expression of fat synthesis genes, quantitative real-time PCR. The class given is in vivo, mouse. As to conditions: db/db mice, oral 5 mg/kg daily for 4 weeks. As for the experimental part:
(§1) Since obesity and insulin resistance are representative diseases directly related to the development of non-alcoholic fatty liver, the improvement effect of Compound 32u on fatty liver was analyzed. Compound 32u was orally administered to db/db mice (9 weeks old) at a concentration of 5 mg/kg daily for 4 weeks. First, the accumulation of fat in the liver, the most representative phenotype, was measured. Briefly, about 50 mg of liver was quantified in cold phosphate buffered saline (PBS) or 0.9% sodium chloride (NaCl) and crushed, followed by treating with mixed solvent of chloroform and methanol (MeOH) in a volume ratio of 2:1 and reacted for 2 hours. […] Thereafter, the amount of neutral fat was measured by absorbance using a neutral fat measurement kit (Stanbio laboratory, TX USA). In order to confirm the corresponding mechanism, mRNA expression of genes related to fat synthesis and degradation was analyzed. […] For the synthesized cDNA, a quantative real-time polymerase chain reaction (quantative real-time PCR) was performed to target the desired gene as a primer and quantify it in real time. Since obesity and insulin resistance are representative diseases directly related to the development of non-alcoholic fatty liver, the improvement effect of Compound 70c on fatty liver was analyzed. […] First, the accumulation of fat in the liver, the most representative phenotype, was measured. […]
(In general: In qPCR the cycle at which signal appears reflects the starting amount.)

For test [5], the system named is CPT1 and ACOX1. As to the kind of experiment: Liver mRNA expression of fat oxidation related genes, quantitative real-time PCR. The class given is in vivo, mouse. The note with it: db/db mice, oral 5 mg/kg daily for 4 weeks, treated vs db/db group. As for the experimental part: as §1
In test [6] the test system is db/db mice. Kind of test: Dietary intake and weight in obese animal model. The class given is in vivo, mouse. As to conditions: oral 5 mg/kg daily for 4 weeks, compared to db/db mice group. On the procedure:
The metabolic disease control ability of Compound 32u was analyzed using db/db mice lacking an appetite-regulating hormone leptin receptor as an obese animal model. Compound 32u was orally administered to db/db mice (9 weeks old) at a concentration of 5 mg/kg daily for 4 weeks. The metabolic disease control ability of Compound 70c was analyzed using db/db mice lacking an appetite-regulating hormone leptin receptor as an obese animal model. Compound 70c was orally administered to db/db mice (9 weeks old) at a concentration of 5 mg/kg daily for 4 weeks.

Experimental findings from EP3613735A1, “NOVEL SIRT 1 ACTIVATOR AND MEDICINAL USE THEREOF” (Pusan National University Industry - University Cooperation …, priority 2017, dated 2018) are described below.

The structures appear in SMILES notation.

`Cl.O=C(Nc1ccccc1-c1cc2ccc(CN3CCNCC3)cc2o1)c1ccc2ccccc2c1` [Compound 32u, N-(2-(6-(Piperazin-1-ylmethyl)benzofuran-2-yl)phenyl)-2-naphthamide hydrochloride]: the “protein expression of endoplasmic reticulum stress-related markers (p-IRE)” value in test [1] is given as “significantly reduced”. The serum insulin concentration result in test [2] is on record as “reduced”. For the same molecule, the lifespan entry in test [3] was “significantly extended”. Moreover, the “expression of fat synthesis genes (FASN, ACC, SREBP-1a, SREBP-1c and SREBP-2)” value in test [4] is “significantly reduced”. In addition, in test [5], the “expression of fat oxidation related genes (CPT1 and ACOX1)” value was “not significantly different”. Further, in test [6], the dietary intake result is reported as “no difference” and the weight result is given as “no difference”.
As for `O=C(Nc1ccccc1-c1nc2cc(CN3CCN(C4CCCCC4)CC3)ccc2o1)c1ccc2ccccc2c1` [Compound 70c, N-(2-(5-((4-Cyclohexylpiperazin-1-yl)methyl)benzo[d]oxazol-2-yl)phenyl)-2-naphthamide], the “protein expression of endoplasmic reticulum stress-related markers (p-IRE)” value in test [1] is listed as “significantly reduced”. Also, in test [2], the serum insulin concentration result was “reduced”. Further, in test [4], the “expression of fat synthesis genes (FASN, ACC, SREBP-1a, SREBP-1c and SREBP-2)” value is given as “significantly reduced”. In test [5], the “expression of fat oxidation related genes (CPT1 and ACOX1)” value is on record as “not significantly different”. Moreover, in test [6], the dietary intake entry is listed as “no difference” and the weight result is given as “no difference”.
